Results reported in ChEMBL document CHEMBL5634109, “Synthesis and mechanism of action of new purine derivatives against triple negative breast cancer” (Eur J Med Chem, 2023).
Activity calls are given as the source filed them. No cut-off for these calls is given here.

Key:
[1] = test system: MDA-MB-231; assay: Inhibition of cell migration human MDA-MB-231 cells assessed as migration distance at 25 uM incubated for 48 hrs by wound healing assay (reference value: 642.72 micrometer); type: functional
[2] = Antiproliferative activity against human HEK293 cells assessed as reduction in cell viability measured for 48 hrs by MTT assay; type: toxicity, cell-based
[3] = molecular target: Dual specificity protein kinase CLK1 (Homo sapiens, UniProt P49759); assay: Inhibition of CLK1 (unknown origin)
[4] = molecular target: Casein kinase I isoform epsilon (Homo sapiens, UniProt P49674); assay: Inhibition of CK1epsilon (unknown origin)
[5] = test system: HUVEC; assay: Antiangiogenesis activity in HUVEC cells at 0.03 to 0.3 uM incubated for 12 hrs by microscopic analysis; type: functional, cell-based; settings: Homo sapiens, dose 0.03-0.3 µM
[6] = test system: MDA-MB-231; assay: Inhibition of cell migration human MDA-MB-231 cells assessed as migration distance at 25 uM incubated for 24 hrs by wound healing assay (reference value: 642.72 micrometer); type: functional
[7] = test system: HepG2; assay: Antiproliferative activity against human HepG2 cells assessed as reduction in cell viability measured for 48 hrs by MTT assay; type: functional, cell-based; settings: HepG2, 48 h
[8] = test system: MDA-MB-468; assay: Antiproliferative activity against human MDA-MB-468 cells assessed as reduction in cell viability measured for 48 hrs by MTT assay; type: functional, cell-based; settings: MDA-MB-468, 48 h
[9] = test system: MDA-MB-231; assay: Antitumor activity against human MDA-MB-231 cells xenografted in nude mouse assessed as decrease in tumor size at 10 to 20 mg/kg, ip measured for 3 days; type: functional, organism-based; settings: dose 10-20 mg/kg, time 3.0 day
[10] = test system: MDA-MB-231; assay: Antiproliferative activity against human MDA-MB-231 cells assessed as reduction in viability at 10 uM incubated for 7.5 hrs by MTT assay; type: functional
[11] = test system: MDA-MB-231; assay: Antiproliferative activity against human MDA-MB-231 cells assessed as reduction in viability at 4 uM incubated for 7.5 hrs by MTT assay; type: functional
[12] = test system: MDA-MB-231; assay: Induction of apoptosis in human MDA-MB-231 cells assessed as apoptotic cells at 4 uM incubated for 12 hrs by Annexin V-FITC/PI staining based analysis; type: functional
[13] = test system: K562; assay: Antiproliferative activity against human K562 cells assessed as reduction in cell viability measured for 48 hrs by MTT assay; type: functional, cell-based; settings: K562, 48 h
[14] = Inhibition of PI3K/AKT/mTOR signaling pathway in human MDA-MB-231 cells assessed as increase in p38 expression at 2 to 4 uM incubated for 6 hrs by Western blot analysis; type: cell-based; settings: dose 2-4 µM
[15] = test system: MGC-803; assay: Antiproliferative activity against human MGC-803 cells assessed as reduction in cell viability measured for 48 hrs by MTT assay; type: functional, cell-based; settings: MGC-803, 48 h
[16] = test system: MDA-MB-231; assay: Induction of apoptosis in human MDA-MB-231 cells assessed as apoptotic cells at 4 uM incubated for 48 hrs by Annexin V-FITC/PI staining based analysis; type: functional
[17] = molecular target: Cyclin-dependent kinase 7 (Homo sapiens, UniProt P50613); assay: Inhibition of CDK7 (unknown origin)
[18] = test system: HUVEC; assay: Antiangiogenesis activity in HUVEC cells at 62.5 nM incubated for 12 hrs by microscopic analysis; type: functional, cell-based; settings: Homo sapiens
[19] = test system: MDA-MB-231; assay: Inhibition of cell migration human MDA-MB-231 cells at 0.01 to 0.4 uM incubated for 24 hrs by DAPI staining based analysis; type: functional; settings: dose 0.01-0.4 µM
[20] = test system: MDA-MB-231; assay: Induction of apoptosis in human MDA-MB-231 cells assessed as apoptotic cells at 40 uM incubated for 12 hrs by Annexin V-FITC/PI staining based analysis; type: functional
[21] = Inhibition of PI3K/AKT/mTOR signaling pathway in human MDA-MB-231 cells assessed as decrease in AKT phosphorylation at 1 to 4 uM incubated for 6 hrs by Western blot analysis; type: cell-based; settings: dose 1-4 µM
[22] = test system: MCF7; assay: Antiproliferative activity against human MCF7 cells assessed as reduction in cell viability measured for 48 hrs by MTT assay; type: functional, cell-based; settings: MCF7, 48 h
[23] = test system: MDA-MB-231; assay: Antitumor activity against human MDA-MB-231 cells xenografted in nude mouse assessed as decrease in CD31 expression at 10 mg/kg, ip measured for 3 days by immunohistochemistry analysis; type: functional, organism-based; settings: time 3.0 day
[24] = Inhibition of PI3K/AKT/mTOR signaling pathway in human MDA-MB-231 cells assessed as increase in p38 phosphorylation at 2 to 4 uM incubated for 6 hrs by Western blot analysis; type: cell-based; settings: dose 2-4 µM
[25] = molecular target: Dual specificity protein kinase CLK2 (Homo sapiens, UniProt P49760); assay: Inhibition of CLK2 (unknown origin)
[26] = test system: MDA-MB-231; assay: Induction of apoptosis in human MDA-MB-231 cells assessed as apoptotic cells at 40 uM incubated for 24 hrs by Annexin V-FITC/PI staining based analysis; type: functional
[27] = test system: MDA-MB-231; assay: Antiproliferative activity against human MDA-MB-231 cells assessed as reduction in cell viability measured for 48 hrs by MTT assay; type: functional, cell-based; settings: MDA-MB-231, 48 h
[28] = test system: MDA-MB-231; assay: Antitumor activity against human MDA-MB-231 cells xenografted in nude mouse assessed as decrease in Ki67 expression at 10 mg/kg, ip measured for 3 days by immunohistochemistry analysis; type: functional, organism-based; settings: time 3.0 day
[29] = Toxicity in nude mouse xenografted with human MDA-MB-231 cells assessed as change in body weight at 10 to 20 mg/kg, ip measured for 3 days; type: organism-based; settings: in vivo, 72 h, dose 10-20 mg/kg, time 3 day
[30] = test system: MDA-MB-231; assay: Induction of apoptosis in human MDA-MB-231 cells assessed as increase in number of cell debris at 4 uM incubated for 48 hrs; type: functional, cell-based
[31] = test system: MDA-MB-231; assay: Antitumor activity against human MDA-MB-231 cells xenografted in nude mouse assessed as inhibition of proliferation of tumor cells at 10 mg/kg, ip measured for 3 days by H and E staining based analysis; type: functional, organism-based; settings: time 3.0 day
[32] = Inhibition of PI3K/AKT/mTOR signaling pathway in human MDA-MB-231 cells assessed as decrease in EGFR expression at 1 to 4 uM incubated for 6 hrs by Western blot analysis; type: cell-based; settings: dose 1-4 µM
[33] = test system: PC-3; assay: Antiproliferative activity against human PC-3 cells assessed as reduction in cell viability measured for 48 hrs by MTT assay; type: functional, cell-based; settings: PC-3, 48 h
[34] = Inhibition of PI3K/AKT/mTOR signaling pathway in human MDA-MB-231 cells assessed as decrease in mTOR phosphorylation at 1 to 4 uM incubated for 6 hrs by Western blot analysis; type: cell-based; settings: dose 1-4 µM
[35] = molecular target: Dual specificity protein kinase CLK4 (Homo sapiens, UniProt Q9HAZ1); assay: Inhibition of CLK4 (unknown origin)
[36] = test system: MDA-MB-231; assay: Induction of apoptosis in human MDA-MB-231 cells assessed as apoptotic cells at 40 uM incubated for 48 hrs by Annexin V-FITC/PI staining based analysis; type: functional
[37] = test system: Cell membrane; assay: Induction of mitochondrial membrane potential loss in human MDA-MB-231 cells assessed as increase in fluorescence intensity at 40 uM incubated for 48 hrs by TMRM dye based flow cytometry analysis (reference value: 97.5%)
[38] = Inhibition of PI3K/AKT/mTOR signaling pathway in human MDA-MB-231 cells assessed as decrease in mTOR expression at 1 to 4 uM incubated for 6 hrs by Western blot analysis; type: cell-based; settings: dose 1-4 µM

Sequence of Casein kinase I isoform epsilon (P49674 whole entry, canonical isoform): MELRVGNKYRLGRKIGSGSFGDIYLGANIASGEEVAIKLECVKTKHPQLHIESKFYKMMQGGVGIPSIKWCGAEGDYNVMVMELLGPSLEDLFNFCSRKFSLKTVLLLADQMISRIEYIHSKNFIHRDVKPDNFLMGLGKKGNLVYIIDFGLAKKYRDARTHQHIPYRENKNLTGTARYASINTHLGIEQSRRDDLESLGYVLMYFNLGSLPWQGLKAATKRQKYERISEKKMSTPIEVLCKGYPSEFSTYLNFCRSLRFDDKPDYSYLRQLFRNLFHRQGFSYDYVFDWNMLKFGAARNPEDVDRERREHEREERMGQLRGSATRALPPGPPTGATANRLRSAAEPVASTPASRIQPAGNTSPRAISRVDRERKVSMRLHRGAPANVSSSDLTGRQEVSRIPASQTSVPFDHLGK
Sequence of Dual specificity protein kinase CLK4 (Q9HAZ1 whole entry): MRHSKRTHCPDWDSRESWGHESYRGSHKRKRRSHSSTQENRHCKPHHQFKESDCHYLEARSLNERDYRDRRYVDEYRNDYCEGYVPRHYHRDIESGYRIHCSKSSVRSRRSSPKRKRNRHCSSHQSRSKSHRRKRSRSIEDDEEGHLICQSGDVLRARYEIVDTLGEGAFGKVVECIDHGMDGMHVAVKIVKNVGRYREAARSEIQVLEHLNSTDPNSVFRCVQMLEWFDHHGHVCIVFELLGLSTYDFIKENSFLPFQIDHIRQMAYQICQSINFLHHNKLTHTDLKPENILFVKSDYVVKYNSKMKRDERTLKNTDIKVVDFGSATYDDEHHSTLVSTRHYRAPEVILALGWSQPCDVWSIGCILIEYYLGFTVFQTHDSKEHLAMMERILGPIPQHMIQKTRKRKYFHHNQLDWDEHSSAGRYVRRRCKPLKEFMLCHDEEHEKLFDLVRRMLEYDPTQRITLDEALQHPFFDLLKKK
Sequence of Cyclin-dependent kinase 7 (P50613 whole entry): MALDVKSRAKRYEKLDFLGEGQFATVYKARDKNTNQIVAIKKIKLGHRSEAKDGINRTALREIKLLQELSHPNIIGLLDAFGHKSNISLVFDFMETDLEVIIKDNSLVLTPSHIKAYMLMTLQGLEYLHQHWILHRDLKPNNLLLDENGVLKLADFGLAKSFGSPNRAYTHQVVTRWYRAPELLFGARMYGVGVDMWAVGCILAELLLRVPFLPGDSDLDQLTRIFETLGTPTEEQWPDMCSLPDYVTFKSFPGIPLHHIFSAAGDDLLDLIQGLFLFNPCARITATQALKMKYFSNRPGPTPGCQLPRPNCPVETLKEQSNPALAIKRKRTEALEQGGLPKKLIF
Sequence of Dual specificity protein kinase CLK1 (P49759 whole entry, canonical isoform): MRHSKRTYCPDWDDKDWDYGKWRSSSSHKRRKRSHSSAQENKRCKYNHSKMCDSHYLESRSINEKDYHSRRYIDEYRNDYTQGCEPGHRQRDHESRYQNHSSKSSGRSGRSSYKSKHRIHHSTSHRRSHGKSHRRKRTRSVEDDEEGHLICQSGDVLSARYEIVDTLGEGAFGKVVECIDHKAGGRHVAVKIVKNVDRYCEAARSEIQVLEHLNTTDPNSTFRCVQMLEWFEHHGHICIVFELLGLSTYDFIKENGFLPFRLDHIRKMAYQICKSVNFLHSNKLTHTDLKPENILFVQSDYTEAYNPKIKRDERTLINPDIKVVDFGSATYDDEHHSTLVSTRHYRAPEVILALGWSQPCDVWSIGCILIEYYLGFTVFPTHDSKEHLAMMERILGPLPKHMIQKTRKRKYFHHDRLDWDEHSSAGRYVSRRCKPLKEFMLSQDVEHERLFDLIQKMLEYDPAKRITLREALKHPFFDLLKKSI
Sequence of Dual specificity protein kinase CLK2 (P49760 whole entry): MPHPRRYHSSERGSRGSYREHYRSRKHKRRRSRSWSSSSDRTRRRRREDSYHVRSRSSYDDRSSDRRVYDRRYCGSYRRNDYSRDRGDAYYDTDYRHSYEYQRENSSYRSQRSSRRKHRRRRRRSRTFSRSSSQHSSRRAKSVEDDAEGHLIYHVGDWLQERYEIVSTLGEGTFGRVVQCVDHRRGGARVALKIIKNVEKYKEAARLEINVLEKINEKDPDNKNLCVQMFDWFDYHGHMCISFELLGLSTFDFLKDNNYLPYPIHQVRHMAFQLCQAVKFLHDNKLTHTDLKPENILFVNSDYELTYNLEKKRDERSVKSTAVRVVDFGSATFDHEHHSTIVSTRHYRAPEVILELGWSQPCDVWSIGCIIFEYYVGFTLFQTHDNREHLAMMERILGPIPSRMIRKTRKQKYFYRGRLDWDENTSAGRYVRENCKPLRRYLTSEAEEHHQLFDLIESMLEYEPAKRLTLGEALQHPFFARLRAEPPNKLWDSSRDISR

OCCN1CCC(C2CCN(c3nc(NCc4ccc(F)c(Cl)c4)c4ncn(CC5CC5)c4n3)CC2)CC1
Activity [1]: 23.48 um
IC50 at 48 h [2]: 4.32 µM
IC50 [3]: 2.97 µM
IC50 [4]: 0.296 µM
Activity [5]: Active
Activity [6]: 15.08 um
IC50 [7]: 1.68 µM
IC50 [8]: 2.82 µM
Activity [9]: Active
Activity [10]: ~100%
Activity [11]: ~100%
Activity [12]: 83.5%
IC50 [13]: 0.32 µM
inhibition [14]: Active
IC50 [15]: 3.89 µM
Activity [16]: 96.3%
IC50 [17]: 2.32 µM
Activity [18]: Active
inhibition [19]: Active
Activity [20]: >95%
inhibition [21]: Active
IC50 [22]: 0.43 µM
Activity [23]: Active
inhibition [24]: Active
IC50 [25]: 0.194 µM
Activity [26]: >95%
IC50 [27]: 3.15 µM
Activity [28]: Active
Activity [29]: Non-Toxic
Activity [30]: Active
Activity [31]: Active
inhibition [32]: Active
IC50 [33]: 2.43 µM
inhibition [34]: Active
IC50 [35]: 0.685 µM
Activity [36]: >95%
Activity [37]: 24.5%
inhibition [38]: Active
